Assay results reported in publication PMC12061832, “Exploring novel dilazep derivatives as hENT1 inhibitors and potentially covalent molecular tools” (Purinergic Signalling, 2024).
pKi: −log10 of the molar value. Where “and” joins values, the source holds several entries; their conditions need not be identical. Identical values can stand only once.

Biological target: T1, hENT1 (Homo sapiens, UniProt Q99808)
T1 construct: performed on erythrocyte cell membranes endogenously expressing the transporter; tissue Sanquin Bloedvoorziening, Amsterdam, The Netherlands; host or cells: erythrocyte membranes (endogenous expression)
T1 sequence (Q99808 1-456): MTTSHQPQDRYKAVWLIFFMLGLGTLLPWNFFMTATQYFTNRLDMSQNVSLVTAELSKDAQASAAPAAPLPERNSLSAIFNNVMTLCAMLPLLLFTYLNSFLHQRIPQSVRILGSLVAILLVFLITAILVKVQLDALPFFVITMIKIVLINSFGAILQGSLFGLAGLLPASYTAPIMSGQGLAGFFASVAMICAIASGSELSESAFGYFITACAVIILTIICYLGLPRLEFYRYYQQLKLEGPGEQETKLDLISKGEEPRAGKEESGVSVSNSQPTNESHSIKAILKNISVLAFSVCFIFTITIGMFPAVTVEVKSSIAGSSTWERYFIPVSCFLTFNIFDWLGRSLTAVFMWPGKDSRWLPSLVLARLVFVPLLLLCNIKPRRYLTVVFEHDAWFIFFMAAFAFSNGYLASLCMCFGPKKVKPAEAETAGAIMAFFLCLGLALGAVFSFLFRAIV
Experiment: [3H]NBTI displacement assay on erythrocyte membranes
Format: binding
Settings: for % displacement at 1 μM: 1 µM inhibitor, [3H]NBTI displacement, mean (individual values) of two experiments; for pKi: erythrocyte membranes, 4 nM [3H]NBTI, 10 °C, 1 h
Protocol: Dilazep and ST7092 were obtained from ASTA-Werke AG (Bielefeld, Germany) and Chemie Linz AG (Linz, Austria), respectively. Radioligand displacement assays were performed as previously described. In brief, the experiments were performed on erythrocyte membranes (Sanquin Bloedvoorziening, Amsterdam, The Netherlands) using a single concentration of 1 µM or multiple concentrations (ranging from 10^–10 to 10^–6) of unlabeled inhibitors in the presence of 4 nM [^3H]NBTI at 10 °C for 1 h in assay buffer (50 mM Tris–HCl, pH 7.4, 0.1% w/v CHAPS). Non-specific binding (NSB) was assessed with 10 µM unlabeled NBTI. […] Subsequently, [^3H]NBTI was added to the preincubated and control samples (containing erythrocyte membranes, unlabeled inhibitor and radioligand) and both types of samples were incubated for another hour. Incubation was terminated by rapid vacuum filtration over Whatman™ UniFilter™ 96-well GF/C microplates using a FilterMate™ Universal Harvester (PerkinElmer, Groningen, The Netherlands). Subsequently, the plates were washed ten times with ice-cold wash buffer (50 mM Tris–HCl, pH 7.4). Thereafter, the filters were dried for 45 min at 55 °C and 25 µL of Microscint (PerkinElmer) was added per well. The filter-bound radioactivity was determined by scintillation spectrometry using a MicroBeta^2 2450 Microplate Counter (PerkinElmer).
For data analysis, dilazep and ST7092 were used as positive controls. All experimental data was analyzed using GraphPad Prism 10.0.2 software (GraphPad Software Inc., San Diego, CA, USA). [^3H]NBTI assays were baseline-corrected with NSB and normalized to this value (0%) and TB (100%). The radioligand displacement curves were fitted to a one-site binding model by nonlinear regression from which the pIC50 values were obtained. […] Data shown represent the mean ± SD of at least two or mean ± SEM of at least three individual experiments each performed in duplicate.
To determine the affinities of the non-covalent hENT1 inhibitors, a [^3H]NBTI displacement assay was performed on erythrocyte cell membranes endogenously expressing the transporter. All compounds were initially screened at a concentration of 1 µM to provide the percentage displacement. If more than 75% displacement was observed, compounds were subsequently characterized in full concentration-effect curves to determine their affinity.

Compound	% displacement at 1 μM	decrease in affinity compared to ST7092 [fold]	pKi
3-(4-(3-((3-(methylamino)benzoyl)oxy)propyl)piperazin-1-yl)propyl 3,4,5-trimethoxybenzoate [Compound 6j]	17 (16, 19) %	–	–
3-(4-(3-((4-(methylamino)benzoyl)oxy)propyl)piperazin-1-yl)propyl 3,4,5-trimethoxybenzoate [Compound 6i]	6 (3, 9) %	–	–
COc1cc(C(=O)OCCCN2CCN(CCCOC(=O)c3ccccc3)CC2)cc(OC)c1OC [Compound 6a, 3-(4-(3-(benzoyloxy)propyl)piperazin-1-yl)propyl 3,4,5-trimethoxybenzoate]	-3 (0, -5) %	–	–
COc1cc(C(=O)OCCCN2CCN(CCCOC(=O)c3ccc(C)cc3)CC2)cc(OC)c1OC [Compound 6b, 3-(4-(3-((4-methylbenzoyl)oxy)propyl)piperazin-1-yl)propyl 3,4,5-trimethoxybenzoate]	7 (10, 3) %	–	–
COc1cc(C(=O)OCCCN2CCN(CCCOC(=O)c3ccc(C)c(C)c3)CC2)cc(OC)c1OC [Compound 6c, 3-(4-(3-((3,4-dimethylbenzoyl)oxy)propyl)piperazin-1-yl)propyl 3,4,5-trimethoxybenzoate]	-7 (-7, -8) %	–	–
COc1cc(C(=O)OCCCN2CCN(CCCOC(=O)c3cc(C)cc(C)c3)CC2)cc(OC)c1OC [Compound 6d, 3-(4-(3-((3,5-dimethylbenzoyl)oxy)propyl)piperazin-1-yl)propyl 3,4,5-trimethoxybenzoate]	-4 (-4, -4) %	–	–
COc1cc(C(=O)OCCCN2CCN(CCCOC(=O)c3ccc(Cl)cc3)CC2)cc(OC)c1OC [Compound 6e, 3-(4-(3-((4-chlorobenzoyl)oxy)propyl)piperazin-1-yl)propyl 3,4,5-trimethoxybenzoate]	not able to inhibit [^3H]NBTI binding and 1 (3, -1) %	–	–
COc1cc(C(=O)OCCCN2CCN(CCCOC(=O)c3ccc(Cl)c(Cl)c3)CC2)cc(OC)c1OC [Compound 6f, 3-(4-(3-((3,4-dichlorobenzoyl)oxy)propyl)piperazin-1-yl)propyl 3,4,5-trimethoxybenzoate]	-4 (-7, -1) %	–	–
COc1cc(C(=O)OCCCN2CCN(CCCOC(=O)c3cccc(N(C)C)c3)CC2)cc(OC)c1OC [Compound 6g, 3-(4-(3-((3-(dimethylamino)benzoyl)oxy)propyl)piperazin-1-yl)propyl 3,4,5-trimethoxybenzoate]	21 (21, 21) %	–	–
COc1cc(C(=O)OCCCN2CCN(CCCOC(=O)c3ccc(N(C)C)cc3)CC2)cc(OC)c1OC [Compound 6h, 3-(4-(3-((4-(dimethylamino)benzoyl)oxy)propyl)piperazin-1-yl)propyl 3,4,5-trimethoxybenzoate]	19 (11, 26) %	–	–
COc1ccccc1C(=O)OCCCN1CCN(CCCOC(=O)c2cc(OC)c(OC)c(OC)c2)CC1 [Compound 6k, 3-(4-(3-((2-methoxybenzoyl)oxy)propyl)piperazin-1-yl)propyl 3,4,5-trimethoxybenzoate]	little to no displacement and 6 (5, 8) %	–	–
COc1cccc(C(=O)OCCCN2CCN(CCCOC(=O)c3cc(OC)c(OC)c(OC)c3)CC2)c1 [Compound 6l, 3-(4-(3-((3-methoxybenzoyl)oxy)propyl)piperazin-1-yl)propyl 3,4,5-trimethoxybenzoate]	little to no displacement and 9 (3, 16) %	–	–
COc1ccc(C(=O)OCCCN2CCN(CCCOC(=O)c3cc(OC)c(OC)c(OC)c3)CC2)cc1 [Compound 6m, 3-(4-(3-((4-methoxybenzoyl)oxy)propyl)piperazin-1-yl)propyl 3,4,5-trimethoxybenzoate]	around 30% and 36 (39, 33) %	–	–
COc1ccc(C(=O)OCCCN2CCN(CCCOC(=O)c3cc(OC)c(OC)c(OC)c3)CC2)cc1OC [Compound 6n, 3-(4-(3-((3,4-dimethoxybenzoyl)oxy)propyl)piperazin-1-yl)propyl 3,4,5-trimethoxybenzoate]	–	80	6.87
COc1cc(OC)cc(C(=O)OCCCN2CCN(CCCOC(=O)c3cc(OC)c(OC)c(OC)c3)CC2)c1 [Compound 6o, 3-(4-(3-((3,5-dimethoxybenzoyl)oxy)propyl)piperazin-1-yl)propyl 3,4,5-trimethoxybenzoate]	–	80	6.84
COc1ccccc1C(=O)OCCCN1CCN(CCCOC(=O)c2ccccc2OC)CC1 [Compound 6p, piperazine-1,4-diylbis(propane-3,1-diyl) bis(2-methoxybenzoate)]	7 (15, -1) %	–	–
COc1cccc(C(=O)OCCCN2CCN(CCCOC(=O)c3cccc(OC)c3)CC2)c1 [Compound 6q, piperazine-1,4-diylbis(propane-3,1-diyl) bis(3-methoxybenzoate)]	8 (11, 4) %	–	–
COc1ccc(C(=O)OCCCN2CCN(CCCOC(=O)c3ccc(OC)cc3)CC2)cc1 [Compound 6r, piperazine-1,4-diylbis(propane-3,1-diyl) bis(4-methoxybenzoate)]	-8 (-5, -11) %	–	–
COc1ccc(C(=O)OCCCN2CCN(CCCOC(=O)c3ccc(OC)c(OC)c3)CC2)cc1OC [Compound 6s, piperazine-1,4-diylbis(propane-3,1-diyl) bis(3,4-dimethoxybenzoate)]	around 30% and 27 (33, 21) %	–	–
COc1cc(OC)cc(C(=O)OCCCN2CCN(CCCOC(=O)c3cc(OC)cc(OC)c3)CC2)c1 [Compound 6t, piperazine-1,4-diylbis(propane-3,1-diyl) bis(3,5-dimethoxybenzoate)]	little to no displacement and 8 (12, 4) %	–	–
COc1ccc(C(=O)OCCCN2CCN(CCCOC(=O)c3ccccc3OC)CC2)cc1OC [Compound 6u, 3-(4-(3-((2-methoxybenzoyl)oxy)propyl)piperazin-1-yl)propyl 3,4-dimethoxybenzoate]	little to no displacement and 12 (16, 9) %	–	–
COc1cc(OC)cc(C(=O)OCCCN2CCN(CCCOC(=O)c3ccc(OC)c(OC)c3)CC2)c1 [Compound 6v, 3-(4-(3-((3,5-dimethoxybenzoyl)oxy)propyl)piperazin-1-yl)propyl 3,4-dimethoxybenzoate]	around 30% and 34 (42, 26) %	–	–
COc1cc(C(=O)OCCCN2CCN(CCCOC(=O)c3cc(OC)c(OC)c(OC)c3)CC2)cc(OC)c1OC [ST7092, reference compound]	–	–	8.75
